Entries after “also recorded” stand apart in the source; their conditions may differ.
Legend:
[1] = biological target: T1, Aβ1-42 (Homo sapiens, UniProt P05067); experiment: Aβ aggregation assay (SDS-PAGE, immunoblot 6E10); format: biochemical; settings: for high molecular weight (SDS-resistant) aggregates of synthetic Aβ1-42 after incubation with the agent: 5 mM Sin-1 or 0.25 mM peroxynitrite, 18 h
T1 construct: Amyloid β 1-42 or Amyloid β 1-42 Y10A (both from rPeptide, Bogart, Ga., USA); host or cells: synthetic peptide
Description: (§1) (6B) Same assay as in A but samples were incubated for different time periods with PN.
(§2) Peptides were separated by 4-12% Nupage and blotted transferred nitrocelluse and incubated with antibody 6E10 (Signet). The remaining sample was stored at −20° C. and analyzed by mass spectrometry. In case of the time course experiment the reaction was stopped using Nupage sample buffer followed by incubation at 70 C for 5 min.
(§3) Aβ1-42, Aβ1-42 Y10F (Peptide Specialty Laboratories) were solubilized as previously described. For nitration samples were incubated with 0.25-0.5 mM peroxynitrate in water while vortexing. Aggregation was started by diluting samples to 25 μM using 50 mM Tris-HCl pH 7. Samples were separated by 4-12% NuPAGE and aggregates were detected using anti-body 6E10 (Signet) and 3-NTyr10-Aβ. Aggregation was expressed as a ratio between the signal above 30 kDa and the Aβ monomer, normalized to the 0 time point of Aβ1-42. Thioflavin T fluorescence assays were performed as described previously. Fluorescence was read at 446 nm (excitation) and 482 nm (emission) using a fluorescence spectrophotometer (Varian).

[2] = biological target: T2, recombinant neprilysin (Homo sapiens, UniProt P08473); experiment: Fluorogenic substrate enzymatic assay, neprilysin; format: biochemical; settings: preincubation with different concentrations of Sin-1
T2 construct: purchased R&D
Description: (§4) Afterwards the substrate was added to a final concentration of 10 μM. The hydrolysis of substrate V was measured based on the increase of fluorescence (exitation 320 nm/emission 405 nm) using a Spectrafluor Plus (Tecan, Austria) plate reader for a time period of up to 60 min in 1 min intervals at 37 C. Determination of IDE activity in mouse brain was performed using the fluorogenic peptide substrate 2-aminobenzoyl-[…]-ethylenediamine-2,4-dinitrophenyl (Bachem, Switzerland)^21. For that mice brains were homogenized in PBS containing 1 mM AEBSF, extracted with 1% Tx-100 and centrifuged at 100000×g for 30 min. 10 μg of supernatants were incubated with 25 μM phosphoramidon to inhibit endogenous neprilysin activity. The fluorogenic substrate was added to a final concentration of 20 μM and the resulting fluorescence signal was measured (excitation 320 nm/emission 413 nm) every 3 min for up to 2 h at 37° C. using a infinite 200 plate reader (Tecan, Austria). Evaluation was done within the linear range of the reaction.

[3] = biological target: T3, recombinant IDE (Homo sapiens, UniProt P14735); experiment: Fluorogenic substrate enzymatic assay, IDE; format: biochemical; settings: 1 mM Sin-1, 30 min preincubation
T3 construct: purchased R&D
T3 sequence (P14735 1-1019): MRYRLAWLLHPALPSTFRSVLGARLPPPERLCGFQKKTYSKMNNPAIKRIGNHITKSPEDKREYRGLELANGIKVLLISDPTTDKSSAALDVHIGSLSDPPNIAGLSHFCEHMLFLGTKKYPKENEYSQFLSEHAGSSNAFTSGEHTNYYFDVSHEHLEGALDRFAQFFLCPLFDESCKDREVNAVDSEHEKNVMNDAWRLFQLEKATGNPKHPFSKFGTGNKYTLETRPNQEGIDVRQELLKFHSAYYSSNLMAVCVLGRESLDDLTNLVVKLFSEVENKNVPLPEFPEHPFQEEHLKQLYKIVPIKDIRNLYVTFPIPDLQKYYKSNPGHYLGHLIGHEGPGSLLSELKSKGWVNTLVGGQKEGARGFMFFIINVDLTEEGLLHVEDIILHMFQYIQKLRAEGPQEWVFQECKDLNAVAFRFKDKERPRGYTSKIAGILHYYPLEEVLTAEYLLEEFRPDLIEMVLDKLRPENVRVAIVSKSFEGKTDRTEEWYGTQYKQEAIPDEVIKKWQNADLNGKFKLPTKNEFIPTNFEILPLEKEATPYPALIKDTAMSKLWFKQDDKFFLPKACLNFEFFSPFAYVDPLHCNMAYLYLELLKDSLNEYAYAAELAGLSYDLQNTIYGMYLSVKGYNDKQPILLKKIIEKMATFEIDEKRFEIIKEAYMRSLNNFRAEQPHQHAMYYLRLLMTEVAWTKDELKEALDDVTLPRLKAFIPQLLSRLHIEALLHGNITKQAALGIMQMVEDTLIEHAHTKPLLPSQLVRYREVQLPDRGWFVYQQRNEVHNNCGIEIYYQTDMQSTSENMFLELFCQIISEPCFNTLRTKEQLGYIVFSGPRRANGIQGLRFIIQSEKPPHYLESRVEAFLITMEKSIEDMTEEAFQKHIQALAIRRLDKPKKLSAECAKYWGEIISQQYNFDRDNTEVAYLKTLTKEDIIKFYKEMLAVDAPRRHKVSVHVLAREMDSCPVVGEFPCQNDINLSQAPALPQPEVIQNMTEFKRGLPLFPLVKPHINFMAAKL
Description: as §4

[4] = biological target: T3, recombinant IDE; experiment: Immunoblot of IDE nitration after Sin-1 incubation; format: biochemical; settings: Sin-1 incubated with purified recombinant IDE
[5] = biological target: T3, recombinant IDE; experiment: Aβ degradation assay; format: biochemical; settings: IDE preincubated with increasing concentration of Sin-1, then Aβ1-42 for 2 h
Source text: Samples were separated by 4-12% NuPAGE and immunoblotted using antibodies PC720 against IDE and 6E10 against Aβ (5E) RIPA fractions of 12 month wild type, APP/PS1 and APP/PS1 iNOS (−/−) animals were monitored for their ability to cleave a fluorgenic peptide substrate in the presence of the neprilysin inhibitor phosphoramidon (n=4+/−SEM, one way anova followed by Tukey post hoc test, […], *p<0.05)

[6] = test system: Aβ1-42; experiment: Aβ aggregation assay (SDS-PAGE, immunoblot 6E10); format: biochemical, human; settings: compared with Aβ1-42
Description: as §1, §2, §3

[7] = test system: Aβ1-42; experiment: Thioflavin T aggregation assay; format: biochemical, human; settings: peptide treated with peroxynitrite, compared with Aβ1-42
Description: as §3

[8] = test system: primary microglial cells; experiment: Microglial phagocytosis of FAM-labeled Aβ1-42; format: cell-based, mouse; settings: 500 nM FAM-Aβ1-42
Description: (4A) Analysis of phagocytosis of primary microglia cells from wild type (wt) and iNOS deficient (iNOS (−/−)) mice exposed to 500 nM fibrillar FAM labeled Aβ1-42 peptide for up to 6 h.
Primary microglial cell cultures were prepared as previously described. Briefly, mixed glial cultures were prepared from newborn mice and cultured in DMEM supplemented with 10% FCS and 100 U ml^−1 penicillin/streptomycin. After 10-14 days of primary cultivation, microglial cells were harvested by shake off.
Microglial phagocytosis of FAM-labeled Aβ1-42 (FAM-Aβ) (Anaspec, San Diego, Calif.) was measured by plate based assay. Cells were plated at 50000 cells per well. After 1 h cells Aβ was added to a final concentration of 500 nM and incubated. Finally, the Aβ-containing medium was removed and extracellular Aβ was quenched with 100 μl 0.2% trypan blue in PBS pH 4.4 for 1 min. After aspiration fluorescence was measured at 485 nm excitation/535 nm emission using a Spectrafluor Plus reader (Tecan, Austria). To normalize for cell numbers 100 μl 50 μg/ml H33342 in PBS was added, incubated for 30 min and the fluorescence measured at 360 nm excitation/465 nm emission.

[9] = biological target: T1, Aβ1-42; experiment: In vitro Aβ1-42 aggregation with added nitrated Aβ1-42; format: biochemical; settings: 25 μM Aβ1-42, 5 h, antibody IC16
[10] = test system: APP/PS1 mice; experiment: Brain extract Aβ immunoblot and Aβ1-40/Aβ1-42 ELISA; format: in vivo, mouse
[11] = test system: APP/PS1 mice; experiment: Hippocampal LTP recording on brain slices of treated mice; format: in vivo, mouse
Source text: (n=5+/−SEM) Right panel: Evaluation of the early (slope 1; […]; […]) of the amplitude of the mean fEPSP (n=5+/−SEM of ten minutes recordings, one-way ANOVA, Newman-Keuls post test, *p<0.05; **p<0.01; ***p<0.001) (2B) Determination of the slope of the mean fEPSP as in A. Right panel: Evaluation of the amplitude of the mean fEPSP (2C) Immunblot of brain homogenates and synaptosomal fractions in wild type and APP/PS1 animals at 12 month of age using an anti-S-nitrocystein specific antibody. (2D) Coomassie stain of anti-S-nitrocystein antibody precipitated synaptosomal fractions from wild type, APP/PS1, APP/PS1 iNOS (−/−) and APP/PS1 L-NIL mice separated by SDS-PAGE (2E) Protein sequence of Hsp75/mortalin. […]
Physiological recordings were performed on brain slices from 3 month old male and female mice, obtained after anesthetization with isoflurane and decapitation. […] Basal synaptic transmission (BST) was assessed by plotting the current (mA) against the peak amplitudes of fEPSP to generate input-output relations. Paired pulse facilitation (PPF) were recorded by applying interstimulus intervals of 30, 50, 75 and 100 ms. For long term potentiation (LTP) experiments a 15 min baseline were recorded with a interpulse interval of one minute at an intensity that evoked a response approximately 30% of maximum fEPSP. […]

[12] = test system: APP/PS1 mice; experiment: Eight arm radial maze test; format: in vivo, mouse
[13] = APP/PS1 mice at 3 month of age, L-NIL orally in the water from 2-3 month

T1 sequence (P05067 672-713): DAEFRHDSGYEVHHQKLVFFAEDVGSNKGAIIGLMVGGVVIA
T2 sequence (P08473 whole entry, species assumed): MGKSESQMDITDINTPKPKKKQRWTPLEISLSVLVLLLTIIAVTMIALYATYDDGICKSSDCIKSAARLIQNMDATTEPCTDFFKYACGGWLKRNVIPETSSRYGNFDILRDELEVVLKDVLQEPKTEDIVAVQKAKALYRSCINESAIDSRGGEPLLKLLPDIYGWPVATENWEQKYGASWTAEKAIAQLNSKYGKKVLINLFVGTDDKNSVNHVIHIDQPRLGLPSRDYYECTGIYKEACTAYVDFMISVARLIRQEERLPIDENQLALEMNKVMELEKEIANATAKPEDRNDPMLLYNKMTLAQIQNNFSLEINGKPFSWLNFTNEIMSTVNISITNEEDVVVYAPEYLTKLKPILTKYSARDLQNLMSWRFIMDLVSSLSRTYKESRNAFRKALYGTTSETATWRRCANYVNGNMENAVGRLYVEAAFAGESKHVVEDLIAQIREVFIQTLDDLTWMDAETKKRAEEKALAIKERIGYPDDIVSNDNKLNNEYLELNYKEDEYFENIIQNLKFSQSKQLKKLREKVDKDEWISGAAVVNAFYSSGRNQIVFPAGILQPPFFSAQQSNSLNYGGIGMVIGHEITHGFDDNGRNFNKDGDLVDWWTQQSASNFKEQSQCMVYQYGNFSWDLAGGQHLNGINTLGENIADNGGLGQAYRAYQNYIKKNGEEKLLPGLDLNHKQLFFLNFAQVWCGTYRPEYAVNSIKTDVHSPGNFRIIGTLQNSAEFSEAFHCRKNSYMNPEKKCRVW

**Q.** With `N=c1c[n+](N2CCOCC2)[n-]o1` [Sin-1, 3-morpholino-sydnonimine] as the molecule, how does the “high molecular weight (SDS-resistant) aggregates of synthetic Aβ1-42 after incubation with the agent” value [1] read?
**A.** strong induction; also recorded: increased generation

**Q.** And the activity of neprilysin [2]?
**A.** could not detect any impact

**Q.** What about the IDE activity [3] of the same molecule?
**A.** almost complete inhibition

**Q.** And the “nitration of IDE (nitrotyrosine immunoblot)” value [4]?
**A.** modifications of IDE detectable with an nitrotyrosine specific antibody

**Q.** What about the “degradation of Aβ1-42 by IDE” value [5] of the same molecule?
**A.** decreased degradation

**Q.** With “Aβ42Y10F: Aβ1-42 peptide with a tyrosine to phenylalanine mutation at position 10” as the molecule, how does the “high molecular weight aggregates of the mutated peptide after incubation with peroxynitrite or Sin-1” value [6] read?
**A.** reduced aggregation to the level of untreated Aβ1-42

**Q.** What about the “formation rate of β-sheet amyloid fibril structures (thioflavin T)” value [7] of the same molecule?
**A.** prevented

**Q.** For `CC(=O)N[C@@H](C(=O)O)C(C)(C)SN=O` (racemic) [SNAP], which Aβ1-42 phagocytosis ([8]; SNAP 100 μM) is on record?
**A.** did not expose differences

**Q.** Which results are given for `O=NOO` [peroxynitrite]?
**A.** high molecular weight (SDS-resistant) aggregates of synthetic Aβ1-42 after incubation with the agent [1]: increased generation; high molecular weight (SDS-resistant) aggregates of synthetic Aβ1-42 after incubation with the agent ([1]; listed as peroxynitrit): strong induction; increase of high molecular aggregates over time ([1]; within 24 h after peroxynitrite treatment): x-fold increase

**Q.** With “nitrated Aβ1-42: synthetic Aβ1-42 nitrated at tyrosine 10 by peroxynitrite treatment” as the molecule, how does the “formation rate of β-sheet amyloid fibril structures (thioflavin T)” value [7] read?
**A.** increased formation rate

**Q.** What about the “formation of Aβ oligomers on addition of small amounts of nitrated Aβ1-42 species” value [9] of the same molecule?
**A.** increased formation

**Q.** With `CC(=N)NCCCC[C@H](N)C(=O)O` [L-NIL, L-N6-(1-iminoethyl)-lysine] as the molecule, how does the “levels of insoluble and soluble Aβ40 and Aβ42 by ELISA” value ([10]; 5 month old APP/PS1 mice preventively treated with L-NIL from 2-3 month) read?
**A.** unable to detect any changes

**Q.** What about the “insoluble Aβ by immunoblot and insoluble Aβ 1-40 and Aβ 1-42 by ELISA” value ([10]; 12 month old APP/PS1 mice, L-NIL from 6-12 month) of the same molecule?
**A.** strong reduction

**Q.** What about the LTP ([11]; APP/PS1 mice at 3 months of age (summary statement)) of the same molecule?
**A.** improvement

**Q.** And the “APP/PS1 induced reduction (suppression) of early and late phase hippocampal LTP” value ([11]; hippocampal slices of 3 month old mice, L-NIL from 2-3 month, 10 and after induction)?
**A.** completely prevented; also recorded: not existent

**Q.** And the Aβ1-42 phagocytosis ([8]; L-NIL 10 μM)?
**A.** did not expose differences

**Q.** What about the working memory errors ([12]; APP/PS1 mice at 3 and 12 months of age (summary statement)) of the same molecule?
**A.** significant reduction

**Q.** What about the reference memory errors [12, 13] of the same molecule?
**A.** protected

**Q.** And the working memory errors [12, 13]?
**A.** to some extent

**Q.** What about the reference memory errors ([12]; APP/PS1 mice at 12 month of age, L-NIL from 6-12 month (post plaque, therapeutic)) of the same molecule?
**A.** reversion of APP/PS1 phenotype

**Q.** And the “working and reference memory errors” value ([12]; APP/PS1 mice treated with L-NIL, age not stated (summary statement))?
**A.** reduction

**Q.** “Aβ42Y10A: modified human Aβ1-42, tyrosine at position 10 replaced by an alanine (SEQ ID NO. 2)” was tested. Which “high molecular weight aggregates of the mutated peptide after incubation with peroxynitrite or Sin-1” value [6] did it give?
**A.** reduced aggregation to the level of untreated Aβ1-42

Reference: patent publication US9011862B2, “Inhibitors of the nitration of amyloid β peptides and their uses in the diagnosis and treatment of Alzheimer's disease” (Rheinische Friedrich-Wilhelms-Universität Bonn, priority 2009, dated 2015)
